Measurements taken from PMC10828444, “Selective inhibition of overactive warmth-sensitive Ca^2+-permeable TRPV3 channels by antispasmodic agent flopropione for alleviation of skin inflammation” (The Journal of Biological Chemistry, 2023).

How the values were obtained:
Type in all cases: cell-based
hTRPV4 = biological target: T1, hTRPV4 (Homo sapiens, UniProt Q9HBA0); test: Whole-cell patch-clamp of TRPV4 currents activated by GSK1016790A in HEK293 cells; conditions: flopropione 100 μM, GSK1016790A 0.1 μM
T1 construct: expressed in transfected cells; host or cells: HEK293
Procedure: (§1) HEK293 cells were cultured in Dulbecco’s modified Eagle’s medium (DMEM, Gibco) containing 4.5 g/L D-glucose supplemented with 10% fetal bovine serum based at 37 °C with 5% CO2. For whole-cell patch-clamp recordings, cells were grown in glass coverslips for 24 h before transient transfections with 3000 ng cDNAs of hTRPV3 (gene accession number BC104866.1), hTRPV1 (accession number NM_080704.3), mTRPV2 (accession number NM_011706.2), hTRPV4 (accession number NM_021625.5), hTRPA1 (accession number NM_007332.3) and hTRPM8 (accession number NM_024080.5) into HEK293 cells grown in a 35-mm cell culture dish using Lipofectamine 2000 (Invitrogen). Cells were used 18 ∼ 24 h after transfection. All WT or mutant hTRPV3 plasmids were validated by DNA sequencing.
(§2) Whole-cell patch clamp recordings of wild-type and mutants were carried out at room temperature using the HEKA EPC10 amplifier powered by PatchMaster software (HEKA) or MultiClamp 700B amplifier driven by Clampex 11.0.3 software. The borosilicate glass pipettes were pulled and fire-polished to 3∼6 MΩ using a DMZ universal electrode puller (Zeitz-Instruments, GmbH). Pipette solution and bath solution both contained (in mM): 130 NaCl, three HEPES, and 0.2 EDTA (pH = 7.4). Cell membrane potential was held at 0 mV, currents were recorded at a voltage ramp from −100 to +100 mV for 500-ms and analyzed at ±80 mV.

hTRPV3 channels = biological target: T2, hTRPV3 channels (Homo sapiens, UniProt Q8NET8); test: Whole-cell patch-clamp of hTRPV3 currents activated by 2-APB in HEK293 cells
T2 construct: expressed in transfected cells; host or cells: HEK293
T2 sequence (Q8NET8 1-790): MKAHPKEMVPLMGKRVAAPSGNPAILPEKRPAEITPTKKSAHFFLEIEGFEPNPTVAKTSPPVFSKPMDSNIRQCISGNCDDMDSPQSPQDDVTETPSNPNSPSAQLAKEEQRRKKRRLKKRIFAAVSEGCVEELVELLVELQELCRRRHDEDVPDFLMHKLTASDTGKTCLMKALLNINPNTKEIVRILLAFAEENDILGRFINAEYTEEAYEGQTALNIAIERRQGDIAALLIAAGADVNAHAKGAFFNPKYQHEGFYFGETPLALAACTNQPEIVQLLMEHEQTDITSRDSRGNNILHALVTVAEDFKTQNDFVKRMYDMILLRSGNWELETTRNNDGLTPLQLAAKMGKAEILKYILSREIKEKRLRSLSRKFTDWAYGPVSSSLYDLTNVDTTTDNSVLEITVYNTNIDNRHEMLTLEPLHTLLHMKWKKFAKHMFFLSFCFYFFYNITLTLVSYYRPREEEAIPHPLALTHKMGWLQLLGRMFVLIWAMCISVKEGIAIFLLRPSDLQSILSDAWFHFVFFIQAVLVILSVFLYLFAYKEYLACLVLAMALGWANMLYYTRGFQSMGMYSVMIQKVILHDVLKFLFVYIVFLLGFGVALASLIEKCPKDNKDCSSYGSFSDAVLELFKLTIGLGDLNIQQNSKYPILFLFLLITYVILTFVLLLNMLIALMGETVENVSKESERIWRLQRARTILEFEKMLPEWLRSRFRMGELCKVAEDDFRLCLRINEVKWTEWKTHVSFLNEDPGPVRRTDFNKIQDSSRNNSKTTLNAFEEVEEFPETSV
Procedure: as §1, §2

mTRPV2 = biological target: T3, mTRPV2 (Mus musculus, UniProt Q9WTR1); test: Whole-cell patch-clamp of TRPV2 currents activated by 2-APB in HEK293 cells; conditions: flopropione 100 μM, 2-APB 2 mM
T3 construct: expressed in transfected cells; host or cells: HEK293
T3 sequence (Q9WTR1 1-756): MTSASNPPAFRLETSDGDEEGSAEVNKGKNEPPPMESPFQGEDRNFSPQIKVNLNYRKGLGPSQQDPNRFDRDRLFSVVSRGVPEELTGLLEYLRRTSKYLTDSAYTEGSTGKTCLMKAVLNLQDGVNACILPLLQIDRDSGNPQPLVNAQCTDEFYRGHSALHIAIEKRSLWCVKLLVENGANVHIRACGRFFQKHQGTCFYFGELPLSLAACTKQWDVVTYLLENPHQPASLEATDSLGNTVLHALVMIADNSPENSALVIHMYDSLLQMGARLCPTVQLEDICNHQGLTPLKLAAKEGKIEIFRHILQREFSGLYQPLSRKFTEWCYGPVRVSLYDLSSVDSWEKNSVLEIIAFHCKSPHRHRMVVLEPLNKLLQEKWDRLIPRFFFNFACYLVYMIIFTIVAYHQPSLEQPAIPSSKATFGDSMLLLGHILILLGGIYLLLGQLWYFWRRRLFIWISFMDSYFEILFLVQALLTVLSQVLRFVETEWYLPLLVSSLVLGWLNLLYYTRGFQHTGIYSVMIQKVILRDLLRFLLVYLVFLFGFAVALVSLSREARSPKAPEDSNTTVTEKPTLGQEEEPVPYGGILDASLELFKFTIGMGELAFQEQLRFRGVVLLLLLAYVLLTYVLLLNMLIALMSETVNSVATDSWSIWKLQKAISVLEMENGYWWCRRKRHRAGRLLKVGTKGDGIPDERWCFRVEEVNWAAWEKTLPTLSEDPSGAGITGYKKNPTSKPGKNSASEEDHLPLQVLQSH
Procedure: as §1, §2

hTRPV3 single channel = biological target: T4, hTRPV3 single channel (Homo sapiens, UniProt Q8NET8); test: Inside-out single-channel recordings of TRPV3 in HEK293 cells; conditions: 50 μM flopropione in presence of 30 μM 2-APB, −60 mV
T4 construct: expressed in transfected cells; host or cells: HEK293
T4 sequence (Q8NET8 1-790): T2 sequence (Q8NET8 1-790)
Excerpt: For single-channel recordings, borosilicate glass pipettes were pulled from borosilicate glass capillaries and fire-polished to the resistance between 6 and 10 MΩ using a DMZ universal electrode puller (Zeitz-Instruments, GmbH). For inside-out single-channel recordings, both pipette and external solutions contained (in mM): 130 NaCl, three HEPES, and 0.2 EDTA (pH = 7.4). Membrane potential was clamped at −60 mV and currents were digitized at 10 kHz and filtered at 2 kHz.

hTRPA1 = biological target: T5, hTRPA1 (Homo sapiens, UniProt O75762); test: Whole-cell patch-clamp of TRPA1 currents activated by AITC in HEK293 cells; conditions: flopropione 100 μM, AITC 300 μM
T5 construct: expressed in transfected cells; host or cells: HEK293
Procedure: as §1, §2

T5 sequence (O75762 whole entry): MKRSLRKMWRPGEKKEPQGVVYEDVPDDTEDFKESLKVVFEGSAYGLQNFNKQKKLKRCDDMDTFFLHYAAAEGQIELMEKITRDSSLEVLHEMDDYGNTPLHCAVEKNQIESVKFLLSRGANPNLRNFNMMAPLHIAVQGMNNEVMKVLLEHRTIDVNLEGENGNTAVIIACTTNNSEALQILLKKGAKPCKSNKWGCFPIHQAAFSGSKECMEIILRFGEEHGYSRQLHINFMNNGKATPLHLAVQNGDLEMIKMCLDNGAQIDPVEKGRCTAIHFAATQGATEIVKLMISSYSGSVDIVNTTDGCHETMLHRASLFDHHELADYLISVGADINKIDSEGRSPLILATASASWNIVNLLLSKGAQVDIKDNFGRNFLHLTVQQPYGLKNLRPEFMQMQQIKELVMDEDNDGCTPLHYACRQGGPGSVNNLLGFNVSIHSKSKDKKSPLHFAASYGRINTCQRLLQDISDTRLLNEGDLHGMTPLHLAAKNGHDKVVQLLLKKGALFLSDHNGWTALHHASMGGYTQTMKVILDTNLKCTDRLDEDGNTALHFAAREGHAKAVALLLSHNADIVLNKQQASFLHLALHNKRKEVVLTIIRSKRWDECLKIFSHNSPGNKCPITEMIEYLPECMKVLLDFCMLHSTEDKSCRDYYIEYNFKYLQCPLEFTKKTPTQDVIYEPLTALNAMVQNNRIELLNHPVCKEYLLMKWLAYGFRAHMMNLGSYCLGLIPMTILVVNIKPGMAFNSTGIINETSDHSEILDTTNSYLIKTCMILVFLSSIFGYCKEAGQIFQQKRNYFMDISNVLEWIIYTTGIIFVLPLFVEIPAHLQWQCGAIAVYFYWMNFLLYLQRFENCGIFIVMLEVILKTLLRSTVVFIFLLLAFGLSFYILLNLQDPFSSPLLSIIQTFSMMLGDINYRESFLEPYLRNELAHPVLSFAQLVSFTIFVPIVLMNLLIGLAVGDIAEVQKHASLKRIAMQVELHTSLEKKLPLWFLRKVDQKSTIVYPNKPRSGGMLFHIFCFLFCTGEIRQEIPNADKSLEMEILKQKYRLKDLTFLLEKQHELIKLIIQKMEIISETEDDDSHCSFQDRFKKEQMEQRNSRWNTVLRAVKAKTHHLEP
T1 sequence (Q9HBA0 whole entry): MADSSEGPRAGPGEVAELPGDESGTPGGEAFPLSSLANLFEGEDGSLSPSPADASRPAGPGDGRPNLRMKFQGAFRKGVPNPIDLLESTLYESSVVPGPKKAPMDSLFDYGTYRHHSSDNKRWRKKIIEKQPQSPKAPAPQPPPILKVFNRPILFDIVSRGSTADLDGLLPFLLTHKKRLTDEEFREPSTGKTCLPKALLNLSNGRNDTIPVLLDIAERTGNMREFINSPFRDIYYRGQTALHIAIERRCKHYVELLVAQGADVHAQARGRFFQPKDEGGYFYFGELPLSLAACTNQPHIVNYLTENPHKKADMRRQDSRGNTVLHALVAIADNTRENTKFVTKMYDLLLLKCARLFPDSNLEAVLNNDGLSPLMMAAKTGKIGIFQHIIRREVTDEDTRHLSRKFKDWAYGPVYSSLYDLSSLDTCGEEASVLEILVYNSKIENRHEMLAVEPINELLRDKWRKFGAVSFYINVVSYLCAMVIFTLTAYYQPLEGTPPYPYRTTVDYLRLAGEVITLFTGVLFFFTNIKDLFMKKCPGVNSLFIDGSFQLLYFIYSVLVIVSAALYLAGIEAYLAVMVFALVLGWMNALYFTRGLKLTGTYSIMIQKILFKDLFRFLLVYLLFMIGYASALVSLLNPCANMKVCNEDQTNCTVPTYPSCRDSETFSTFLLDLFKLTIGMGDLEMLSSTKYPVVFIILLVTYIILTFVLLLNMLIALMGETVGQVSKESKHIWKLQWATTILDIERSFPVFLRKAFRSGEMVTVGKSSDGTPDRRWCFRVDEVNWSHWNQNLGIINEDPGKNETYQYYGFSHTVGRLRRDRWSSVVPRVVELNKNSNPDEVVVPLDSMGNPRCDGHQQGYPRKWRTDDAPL

effect on TRPV4 currents (hTRPV4): no effect
inhibition at 100 µM (hTRPV3 channels; HEK293, flopropione 100 μmol/L, agonist 2-APB 50 μmol/L, read-out: inhibition of TRPV3 currents): ~84%
IC50 (hTRPV3 channels; whole-cell, HEK293, 50 μM 2-APB activation, n = 5, mean ± SD, read-out: IC50 of dose-dependent inhibition of TRPV3 currents): 17.8 ± 3.5 µM
inhibition at 100 µM (mTRPV2): ~60%
unitary single channel conductance (hTRPV3 single channel): 167.1 ± 9.0 pS
single-channel open probability (hTRPV3 single channel; n = 4): 0.17 ± 0.06
effect on TRPA1 currents (hTRPA1): no effect
SMILES: CCC(=O)c1c(O)cc(O)cc1O [flopropione]
